According to patent publication US20040087561A1, “Treatment of sexual dysfunction” (priority 2000, published 2004):

How the values were obtained:
[1] = system: ovariectomised female Sprague Dawley rats; assay: Inhibition of female rat sexual proceptivity by NMB and its antagonism; type: in vivo; conditions: pre-treatment 15 mg/kg i.p. 1 h before NMB 100 ng i.c.v.; progesterone-treated rats; blockade not total
Experimental: Ovariectomised female rats (Sprague Dawley, obtained from Charles River, UK) were stereotaxically implanted (coordinates 0.89 mm behind Bregma, 1.3 mm lateral and 2.5 mm vertical) with stainless steel cannulae (6 mm long, O.D. 0.75 mm), held in place with dental cement. Animals were housed in groups of three and returned to a reversed lighting system of 12 h light:dark (lights off 5.00-17.00 h). Correct placement of the cannulae was assessed post-mortem. Rats were used for tests two weeks after ovariectomy (one week after cannulation). The experiments started at least 5 h into the dark period. Forty eight hours before tests, the animals were primed with 5 μg oestradiol benzoate (OB) (s.c, in corn oil) and adapted to the apparatus (in the absence of stimuli animals) for 10 min on 2 consecutive days prior testing. The 10 min test was carried out as previously described. The difference in the percentage of time spent investigating male minus female was calculated, out of the total time spent investigating stimuli.
Progesterone (Prog, 0.5 mg/0.1 ml) was dissolved in corn oil and administered subcutaneously (s.c.), 4 h before test, to induce proceptive behaviour. Compound (1) (15 mg/kg, i.p.) was dissolved in 50% 2-hydroxypropyl-β-cyclodextrin in saline and administered 1 h before the i.c.v. administration. Neuromedin B was obtained from Bachem, UK. It was dissolved in isotonic saline and administered i.c.v. over a 30 sec period, with the aid of a pump set to deliver a flow of 10 μl/min, 10 min before tests. The dosing volume was 5 μl/rat. Each rat received a total amount of 100 ng.
From the present study we can conclude that stimulation of BB1 receptors with an agonist results in inhibition of proceptive behaviour. This inhibitory effect may be prevented by the presence of an antagonist. e.g. Compound (1) In FIG. 5 the bars represent percentage of time spent investigating male, minus the percentage of time spent investigating the female stimuli+SEM, (n=8-12 per group). ***P<0.001 vs progesterone (One-way ANOVA followed by Dunnett's test).

[2] = system: Female New Zealand rabbits; assay: Pelvic nerve-stimulated female genital blood flow, anaesthetised rabbit model of sexual arousal; type: in vivo; conditions: 15 mg/kg sc
Experimental: Female New Zealand rabbits (2.5 kg) were pre-medicated with a combination of Medetomidine (Domitor®) 0.5 ml/kg im., and Ketamine (Vetalar®) 0.25 ml/kg i.m. whilst maintaining oxygen intake via a face mask. The rabbits were tracheotomised using a Portex™ uncuffed endotracheal tube 3 ID., connected to ventilator and maintained at a ventilation rate of 30-40 breaths per minute, with an approximate tidal volume of 18-20 ml, and a maximum airway pressure of 10 cm H2O. Anaesthesia was then switched to Isoflurane and ventilation continued with O2 at 2 l/min. The right marginal ear vein was cannulated using a 23G or 24G catheter, and Lactated Ringer solution perfused at 0.5 ml/min. The rabbit was maintained at 3% Isoflurane during invasive surgery, dropping to 2% for maintenance anaesthesia.
The left groin area of the rabbit was shaved and a vertical incision was made approximately 5 cm in length along the thigh. […] Systolic and diastolic pressures were measured, and the mean arterial pressure calculated using the formula (diastolic ×2+systolic)÷3. Heart rate was measured via the pulse oxymeter and Po-ne-mah data acquisition software system (Ponemah Physiology Platform, Gould Instrument Systems Inc). […] A frequency response curve was determined at the start of each experiment in order to determine the optimum frequency to use as a sub-maximal response, normally 4 Hz. […]

## COc1ccc(C2(CNC(=O)[C@](C)(Cc3c[nH]c4ccccc34)NC(=O)Nc3ccc([N+](=O)[O-])cc3)CCCCC2)nc1 [Compound (1), (S) 3-(1H-Indol-3-yl)-N-[1-(5-methoxy-pyridin-2-yl)-cyclohexyl-methyl]-2-methyl-2-[3-(4-nitro-phenyl)-ureido]-propionamide]
[1]
  antagonism of the inhibitory effect of NMB on proceptivity: prevented the inhibitory effect of NMB
[2]
  pelvic-nerve stimulated (PNS) increases in genital (vaginal and clitoral) blood flow: potent enhancer
